The text below walks through data of patent publication US20100249132A1, “IMIDAZOLE DERIVATIVES” (MERCK PATENT GESELLSCHAFT MIT BESCHRANKTER HAFTUNG, priority 2007, published 2010).

Each structure is given as a SMILES string.

This test deals with T1, recombinant autotaxin (Homo sapiens, UniProt Q13822).
T1 construct: made in house; host or cells: Hi5 insect cells (baculovirus)
Briefly: Autotaxin test (enzyme test), Amplex Red fluorescence. The class given is biochemical. The following applies: substrate LPC 75 μM, Amplex Red detection, read-out: IC50 (autotaxin inhibition, enzyme test). Here is the method:
Autotaxin Inhibition (Enzyme Test)
Autotaxin Test (Enzyme Test)
The autotaxin activity is measured indirectly using Amplex Red reagent. Amplex Red is measured here as fluorogenic indicator for the H2O2 formed. In detail, autotaxin converts the substrate lysophosphatidylcholine (LPC) into phosphocholine and lysophosphatidylic acid (LPA). After this reaction, the phosphocholine is reacted with alkaline phosphatase to give inorganic phosphate and choline. In the next step, choline is oxidised by choline oxidase to give betaine, with formation of H2O2. H2O2 reacts with Amplex Red reagent in the presence of peroxidase (horseradish peroxidase) in a 1:1 stoichiometry and forms the highly fluorescent resorufin. The fluorescence is measured in a reaction-dependent kinetic mode in order that fluorescent signals from possible other fluorescent substances which are not involved in the reaction can be corrected out.
1.5 μl of a standard solution or of the test substances (substances with the name A(n)) in individual concentrations dissolved in 20 mM Hepes pH 7.2 with a maximum of 7.7% of DMSO are pre-incubated together with 10 μl (16 ng) of highly purified recombinant autotaxin in a black microtitre plate provided with 384 wells at 22° C. for 30 min. The reaction is then initiated by addition of 5 μl of L-α-lysophosphatidylcholine (LPC), where the final concentration of LPC is 75 μM. The mixture is incubated at 37° C. for 90 min. After the incubation, Amplex Red reagent, peroxidase (horseradish peroxidase) and choline oxidase is added, and the fluorescence is immediately measured at 612 nm with excitation of 485 nm in a “Tecan Ultra multimode” reader. The activity of autotaxin is calculated indirectly via detection of the H2O2 formed. • Material: • Microtitre plate: PS microplate, 384 wells, small volume, black Corning, Cat #3677 • Protein: recombinant autotaxin (Baculovirale Hi5 Expression) • Substrate: L-α-lysophosphatidylcholine (chicken egg)); Avanti Polar Lipids #830071 P • Standard: C14 LPA, Avanti Polar Lipids, Cat #857120P • Detection reagent: Amplex Red reagent; Invitrogen #A12222; dissolved in 1.923 ml of DMSO peroxidase type VI-A (horseradish) from Sigma #P6782; dissolved in 7.45 ml of test buffer, choline oxidase; Sigma #C5896; dissolved in 2.47 ml of test buffer • Detection reagent mix: 1:100 dilution of Amplex Red reagent in test buffer • Test buffer: 200 mM Tris HCl, Merck, Cat #1.08219, pH 7.9, 0.1% of BSA, lipid-free, Roche Cat #775835

By IC50 is commonly meant the point on the concentration scale where inhibition reaches its midpoint. As to `NC(=O)c1nc(Cc2ccc(C(=O)O)o2)[nH]c1NC(=O)NCCc1ccccc1` [Compound A27, 5-[4-Carbamoyl-5-(3-phenethylureido)-1H-imidazol-2-ylmethyl]furan-2-carboxylic acid], the IC50 lay in the range of 1 to 10 µM.
With `CCc1cccc(CC)c1NC(=O)Nc1[nH]c(Cc2ccc(C(=O)O)o2)nc1C(N)=O` [Compound A28, 5-{4-Carbamoyl-5-[3-(2,6-diethylphenyl)ureido]-1H-imidazol-2-ylmethyl}furan-2-carboxylic acid] the figure was above 10 µM.
For `NC(=O)c1nc(Cc2ccc(C(=O)O)o2)[nH]c1NC(=O)Nc1ccc(Cl)c(C(F)(F)F)c1` [Compound A29, 5-{4-Carbamoyl-5-[3-(4-chloro-3-trifluoromethyl-phenyl)ureido]-1H-imidazol-2-ylmethyl}furan-2-carboxylic acid], the IC50 was above 10 µM.
With `NC(=O)c1nc(Cc2ccc(C(=O)O)o2)[nH]c1NC(=O)Nc1ccc(Cl)cc1` [Compound A30, 5-{4-Carbamoyl-5-[3-(4-chlorophenyl)ureido]-1H-imidazol-2-ylmethyl}furan-2-carboxylic acid], the IC50 is 1 to 10 µM.
Take `Cc1cc(C)c(NC(=O)Nc2[nH]c(Cc3ccc(C(=O)O)o3)nc2C(N)=O)c(C)c1` [Compound A31, 5-{4-Carbamoyl-5-[3-(2,4,6-trimethylphenyl)-ureido]-1H-imidazol-2-ylmethyl}furan-2-carboxylic acid]: the IC50 lay within 1 to 10 µM.
Take `CCc1cccc(C)c1NC(=O)Nc1[nH]c(Cc2ccc(C(=O)O)o2)nc1C(N)=O` [Compound A32, 5-{4-Carbamoyl-5-[3-(2-ethyl-6-methylphenyl)-ureido]-1H-imidazol-2-ylmethyl}furan-2-carboxylic acid]: the IC50 is above 10 µM.
In the case of `NC(=O)c1nc(Cc2ccc(C(=O)O)o2)[nH]c1NC(=O)Nc1ccc2ccccc2c1` [Compound A33, 5-[4-Carbamoyl-5-(3-naphthalen-2-ylureido)-1H-imidazol-2-ylmethyl]furan-2-carboxylic acid], the 50% inhibitory concentration (IC50) was above 10 µM.
With `NC(=O)c1nc(Cc2ccc(OCC(=O)O)cc2)[nH]c1NC(=O)Nc1ccc(F)cc1` [Compound A36, (4-{4-Carbamoyl-5-[3-(4-fluorophenyl)ureido]-1H-imidazol-2-ylmethyl}phenoxy)acetic acid] the figure was above 10 µM; with `NC(=O)c1nc(Cc2ccc(OCC(=O)O)cc2)[nH]c1NC(=O)Nc1cccc(C(F)(F)F)c1` [Compound A37, (4-{4-Carbamoyl-5-[3-(3-trifluoromethylphenyl)-ureido]-1H-imidazol-2-ylmethyl}phenoxy)acetic acid], above 10 µM; with `NC(=O)c1nc(Cc2ccc(OCC(=O)O)cc2)[nH]c1NC(=O)Nc1ccc(C(F)(F)F)cc1` [Compound A38, (4-{4-Carbamoyl-5-[3-(4-trifluoromethylphenyl)-ureido]-1H-imidazol-2-ylmethyl}phenoxy)acetic acid], 1 to 10 µM.
Regarding `CCCCc1ccc(NC(=O)Nc2[nH]c(Cc3ccc(OCC(=O)O)cc3)nc2C(N)=O)cc1` [Compound A39, (4-{5-[3-(4-Butylphenyl)ureido]-4-carbamoyl-1H-imidazol-2-ylmethyl}phenoxy)acetic acid], the IC50 was 1 to 10 µM.
Turning to `Cc1ccc(NC(=O)Nc2[nH]c(Cc3ccc(OCC(=O)O)cc3)nc2C(N)=O)cc1` [Compound A40, {4-[4-Carbamoyl-5-(3-p-tolylureido)-1H-imidazol 2-ylmethyl]phenoxy}acetic acid], the IC50 was 1 to 10 µM.
Consider `NC(=O)c1nc(Cc2ccc(OCC(=O)O)cc2)[nH]c1NC(=O)Nc1ccc(Cl)cc1` [Compound A41, (4-{4-Carbamoyl-5-[3-(4-chlorophenyl)ureido]-1H-imidazol-2-ylmethyl}phenoxy)acetic acid], for which the IC50 is 1 to 10 µM.
For the compound `CCc1ccc(NC(=O)Nc2[nH]c(Cc3ccc(OCC(=O)O)cc3)nc2C(N)=O)cc1` [Compound A42, (4-{4-Carbamoyl-5-[3-(4-ethylphenyl)ureido]-1H imidazol-2-ylmethyl}phenoxy)acetic acid], the 50% inhibitory concentration (IC50) lay in the range of 1 to 10 µM.
On to `CCCCCc1ccc(NC(=O)Nc2[nH]c(Cc3ccc(OCC(=O)O)cc3)nc2C(N)=O)cc1` [Compound A43, (4-{4-Carbamoyl-5-[3-(4-pentylphenyl)ureido]-1 H-imidazol-2-ylmethyl}phenoxy)acetic acid], for which the IC50 fell in the range of 1 to 10 µM.
For the compound `NC(=O)c1nc(Cc2ccc(OCC(=O)O)cc2)[nH]c1NC(=O)Nc1cc(C(F)(F)F)ccc1F` [Compound A44, (4-{4-Carbamoyl-5-[3-(2-fluoro-5-trifluoromethyl-phenyl)ureido]-1H-imidazol-2-ylmethyl}phenoxy)-acetic acid], the IC50 was above 10 µM.
For the compound `NC(=O)c1nc(Cc2ccc(OCC(=O)O)cc2)[nH]c1NC(=O)Nc1ccc(Oc2ccccc2)cc1` [Compound A45, (4-{4-Carbamoyl-5-[3-(4-phenoxyphenyl)ureido]-1H-imidazol-2-ylmethyl}phenoxy)acetic acid], the IC50 was above 10 µM.
In the case of `NC(=O)c1nc(-c2ccc(OCC(=O)O)cc2)[nH]c1NC(=O)Nc1ccc(F)cc1` [Compound A46, (4-{4-Carbamoyl-5-[3-(4-fluorophenyl)ureido]-1H-imidazol-2-yl}phenoxy)acetic acid], the IC50 was above 10 µM.
In the case of `NC(=O)c1nc(-c2ccc(OCC(=O)O)cc2)[nH]c1NC(=O)Nc1ccccc1Cl` [Compound A47, (4-{4-Carbamoyl-5-[3-(2-chlorophenyl)ureido]-1H-imidazol-2-yl}phenoxy)acetic acid], the IC50 is above 10 µM.
Consider `Cc1cccc(C)c1NC(=O)Nc1[nH]c(-c2ccc(OCC(=O)O)cc2)nc1C(N)=O` [Compound A48, (4-{4-Carbamoyl-5-[3-(2,6-dimethylphenyl)-ureido]-1H-imidazol-2-yl}phenoxy)acetic acid], for which the IC50 is above 10 µM.
For the compound `NC(=O)c1nc(-c2ccc(OCC(=O)O)cc2)[nH]c1NC(=O)Nc1cccc(C(F)(F)F)c1` [Compound A49, (4-{4-Carbamoyl-5-[3-(3-trifluoromethylphenyl)-ureido]-1H-imidazol-2-yl}phenoxy)acetic acid], the IC50 lay in the range of 1 to 10 µM.
For `NC(=O)c1nc(-c2ccc(OCC(=O)O)cc2)[nH]c1NC(=O)Nc1ccc(C(F)(F)F)cc1` [Compound A50, (4-{4-Carbamoyl-5-[3-(4-trifluoromethylphenyl)-ureido]-1H-imidazol-2-yl}phenoxy)acetic acid], the IC50 lay within 1 to 10 µM.
Take `CC(C)c1ccc(NC(=O)Nc2[nH]c(-c3ccc(OCC(=O)O)cc3)nc2C(N)=O)cc1` [Compound A51, (4-{4-Carbamoyl-5-[3-(4-isopropylphenyl)ureido]-1H-imidazol-2-yl}phenoxy)acetic acid]: the IC50 fell in the range of 1 to 10 µM.
For the compound `CCCCc1ccc(NC(=O)Nc2[nH]c(-c3ccc(OCC(=O)O)cc3)nc2C(N)=O)cc1` [Compound A52, (4-{5-[3-(4-Butylphenyl)ureido]-4-carbamoyl-1H-imidazol-2-yl}phenoxy)acetic acid], the IC50 was above 10 µM.
The value for `Cc1ccc(NC(=O)Nc2[nH]c(-c3ccc(OCC(=O)O)cc3)nc2C(N)=O)cc1` [Compound A53, {4-[4-Carbamoyl-5-(3-p-tolylureido)-1H-imidazol 2-yl]phenoxy}acetic acid] was above 10 µM.
In the case of `CCc1ccc(NC(=O)Nc2[nH]c(-c3ccc(OCC(=O)O)cc3)nc2C(N)=O)cc1` [Compound A54, (4-{4-Carbamoyl-5-[3-(4-ethylphenyl)ureido]-1H-imidazol-2-yl}phenoxy)acetic acid], the IC50 is 1 to 10 µM.
As to `NC(=O)c1nc(-c2ccc(OCC(=O)O)cc2)[nH]c1NC(=O)Nc1cc(C(F)(F)F)ccc1F` [Compound A55, (4-{4-Carbamoyl-5-[3-(2-fluoro-5-trifluoromethyl-phenyl)ureido]-1H-imidazol-2-yl}phenoxy)acetic acid], the IC50 was in the range of 1 to 10 µM.
As to `NC(=O)c1nc(COc2ccc(CC(=O)O)cc2)[nH]c1NC(=O)Nc1ccc(C(F)(F)F)cc1` [Compound A56, (4-{4-Carbamoyl-5-[3-(4-trifluoromethylphenyl)-ureido]-1H-imidazol-2-ylmethoxy}phenyl)acetic acid], the IC50 lay within 1 to 10 µM.
Regarding `CC(C)c1ccc(NC(=O)Nc2[nH]c(COc3ccc(CC(=O)O)cc3)nc2C(N)=O)cc1` [Compound A57, (4-{4-Carbamoyl-5-[3-(4-isopropylphenyl)ureido]-1H-imidazol-2-ylmethoxy}phenyl)acetic acid], the IC50 is 1 to 10 µM.
